Entries after “also recorded” stand apart in the source; their conditions may differ.

The source of these data is patent US6080425A, “Boron compounds and complexes as skin-rejuvenating agents” (TopGene, Inc., priority 1998, dated 2000).

Data set [1] has as its system cat fleas. To be noted: ingestion by cat fleas; cited from earlier work.
Data set [2] relates to chick embryo pelvic cartilage. Particulars: cited from earlier work.
Data set [3] concerns neutrophiles. Particulars: intact neutrophiles stimulated by thrombin or leukotriene B4; extracellular addition; cited from earlier work.
Data set [4] concerns human platelets. To be noted: intact human platelets stimulated by thrombin or leukotriene B4; extracellular addition; cited from earlier work.
Data set [5] relates to rat cerebral microsomal preparations. To be noted: cited from earlier work.
Data set [6] deals with human fibroblasts. As to the kind of experiment: H3Proline/H3Leucine incorporation in human fibroblasts (FIG. 5). In kind it is cell-based. To be noted: single dose, compared to untreated cells.
In data set [7] the test system is HIV. To be noted: cited from earlier work.
Data set [8] has as its system normal human fibroblasts. As to the kind of experiment: Cytotoxicity on normal human fibroblasts by MTT assay (FIG. 3). To be noted: 72 hours; for cytotoxic effects (MTT assay), in words: single dose, normal human fibroblasts, FIG. 3: increasing concentrations. In kind it is cell-based. From the text:
(§1) FIGS. 3-7 illustrate results of experiments designed to elucidate some of the biological properties that may be present in contemplated boron compounds/complexes. In these examples, we studied the action of two boron complexes: sodium fructo-borate (SFB) and sodium salicylato-borate (SSB), upon normal human fibroblasts, in comparison to untreated fibroblasts and ones treated with boric acid (BA, uncomplexed with any ligand). FIG. 3 depicts results of a single dose treatment of human fibroblasts with increasing concentrations of BA, SFB and SSB for 72 hours in order to determine their cytotoxic effects (by MTT assay).
(Tetrazolium dyes change colour on reduction, which living cells bring about.)

Data set [9] relates to normal human fibroblasts. In words: Collagen synthesis: ratio of H3Proline to H3Thymidine incorporation in human fibroblasts (FIG. 6). Particulars: single dose, 72 hours. In kind it is cell-based. On the procedure:
FIG. 6 is a graph depicting experimental results of increase of collagen synthesis (measured by determination of ratio between incorporation of H3Proline and H3Thymidine) in human fibroblasts by treating them with A, B and C, compared to untreated cells.
FIG. 6 depicts the results of a single dose treatment of normal human fibroblasts with the selected compounds for 72 hours, in which case the increase of collagen synthesis was calculated by ratio between incorporation of H3Proline over the incorporation of H3Thymidine under the same experimental conditions. In this experiment, SFB was best at the concentration of 1 ug/ml, while at the concentration of 10 ug/ml its activity was next to BA. […] These properties are of special value for skin-rejuvenation purposes.
Background: Incorporation of labelled thymidine or its analogues reports DNA synthesis.

Data set [10] deals with normal human fibroblasts. In words: H3Proline incorporation in human fibroblasts (FIG. 4). In kind it is cell-based. To be noted: single dose, 72 hours, vs BA, SFB, SSB. The procedure:
FIG. 4 is a graph depicting experimental results of H3Proline incorporation (in human fibroblasts) upon treatment with A, B, and C compared to untreated cells.
FIG. 4 depicts results from treatment of normal human fibroblasts with a single dose of BA, SFB and SSB for 72 hours, whereupon the final degree of incorporation of H3Proline was determined. The degree of H3Proline incorporation is a measure of the ongoing biosynthesis of collagen in treated cells.

Data set [11] concerns normal human fibroblasts. As to the kind of experiment: Multi-parameter analysis of biological activity, labeling cells with tritiated Uridine, Thymidine, Leucine and Proline (FIG. 7). In kind it is cell-based. To be noted: labeling for 8 hours.
From the text: FIG. 7 is a graph depicting a multi-parameter analysis of biological activity of complex B.
as §1
FIG. 7 depicts a multi-parameter analysis of biological activity of SFB.

[12] abbreviates: same concentration, great molar excess of glucose in culture medium.

Turning to `OB(O)O` [BA, boric acid], in data set [1], the larvicidal effects entry is reported as “Larvicidal effects”. In addition, in [2] (1-3% aqueous boric acid), the “intracellular synthesis of proteoglycans, collagen and TNF-alpha” value is recorded as “strongly decreases”; the “release of proteoglycans, collagen and TNF-alpha into the culture medium” value is on record as “induces release”. Also, in data set [2] (setting [12]), the intracellular protein synthesis result is on record as “does not decrease” and the “protein secretion into the culture medium” value is “still stimulates”.
As to `NCCOB(c1ccccc1)c1ccccc1` [Example 2-APB, 2-amonoethoxydiphenyl borate], the “inhibition of cytosolic Ca rise” value in data set [3] and in data set [4] was “inhibited” each time. Further, the “inhibition of Ins(1,4,5)P3-induced Ca release” value in [5] is “inhibited”.
Regarding `O=C1O[B-]2(OC(=O)c3ccccc3O2)Oc2ccccc21` [SSB, sodium salicylato-borate], the “preferred incorporation of H3Proline over H3Leucine, in words” value in [6] is listed as “best performance”.
As for `CC(C)[C@@H](N)C(=O)O[C@H](C)[C@@H]1C/C=C\CC[C@H](O)C(C)(C)[C@@H]2CC[C@@H](C)[C@@]3(O2)O[B-]24O[C@@H](C(=O)O1)[C@]1(O[C@@H](CC[C@H]1C)C(C)(C)[C@H](O)CCC[C@@H]1C[C@H](OC(=O)[C@@H]3O2)[C@@H](C)O1)O4.[H+]` [boromycin], the anti-HIV activity entry in data set [7] was “anti-HIV antibiotic”.
For the molecule `O.O.O.O.O=BOB1OB(OB=O)OB2OB([O-])OB([O-])OB(O1)O2.[Na+].[Na+]` [disodium octaborate tetrahydrate], the larvicidal effects entry in data set [1] is “Larvicidal effects”.
Turning to `O.O.O.O.O.O.O.O.O.O.[Na+].[Na+].[O-]B1OB2OB([O-])OB(O1)O2` [sodium borate, reference compound], the “cytotoxic effects (MTT assay), in words” value in data set [8] was “minimal cytotoxic effects”.
Take sodium fructo-borate [SFB]: the “increase of collagen synthesis (ratio H3Proline/H3Thymidine incorporation), in words” value in [9] (1 ug/ml) is reported as “best”; in [9] (10 ug/ml), “next to BA”. Moreover, the “preferred incorporation of H3Proline over H3Leucine, in words” value in data set [6] is recorded as “quite close”. The “fold less toxic than BA (boric acid)” value in data set [8] (100 ug/ml, MTT assay) is listed as approximately 4 times. In addition, the “cytotoxic effects (MTT assay), in words” value in data set [8] is listed as “least toxic; also recorded: least toxicity”; in data set [8] (listed as sodium fructo-borate), “minimal cytotoxic effects”; in data set [8] (listed as sodium fructoborate), “considerably less toxic than boric acid”. Further, the “degree of incorporation of H3Proline (measure of collagen biosynthesis), in words” value in data set [10] was “most beneficial effect”. In [11], the “overall effects (tritiated Uridine, Thymidine, Leucine and Proline labeling), in words” value is “quite favorable and beneficial”.
